Experiments:
Type in all cases: biochemical
[1] = target: T1, human EGFR (d746-750/C797S) (Homo sapiens, UniProt P00533, C797S/DEL746-750); test: Inhibitory activity against EGFR (d746-750/C797S) kinase; conditions: Test Example 1, Table 4; ATP 14 μM, 60 minutes
T1 construct: purchased SignalChem
Protocol: 3) Measurement of inhibitory activity against EGFR (d746-750/C797S) kinase
The compounds of the present invention were measured for their inhibitory activity against EGFR (d746-750/C797S) kinase activity.
The materials, measurement procedures and data analysis method used in this test are substantially the same as those shown in the section “Measurement of inhibitory activity aiainst EGFR (d746-750/T790M/C797S) kinase.” However, among the materials, the kinase protein used was a purified recombinant human EGFR (d746-750/C797S) protein purchased from SignalChem, while the kinase reaction buffer used was 13.5 mM Tris (pH 7.5) containing 2 mM dithiothreitol and 0.009% Tween-20. In the measurement procedures, the final concentration of ATP was set to 14 μM, the final concentration of maganesium chloride was set to 20 mM, the final concentration of manganese chloride was set to 12.5 mM, the incubation time for kinase reaction was set to 60 minutes, and the final concentration of EDTA used to stop the kinase reaction was set to 40 mM. Finally, data analysis was conducted to determine to IC50 value (nM) of each compound against EGFR (d746-750/C797S).
In accordance with the same procedures as shown in 3) in Test Example 1, the compounds of the present invention were measured for their inhibitory activity against EGFR (d746-750/C797S) kinase activity.

[2] = target: T2, human EGFR (d746-750/T790M/C797S) (Homo sapiens, UniProt P00533, C797S/DEL746-750/T790M); test: Inhibitory activity against EGFR (d746-750/T790M/C797S) kinase; conditions: Test Example 1, Table 2; ATP 6 μM, 25° C., 120 minutes
T2 construct: made in house; host or cells: Sf9 insect cells, baculovirus
T2 sequence (P00533 with tags, fused parts or gaps DEL746-750/T790M/C797S): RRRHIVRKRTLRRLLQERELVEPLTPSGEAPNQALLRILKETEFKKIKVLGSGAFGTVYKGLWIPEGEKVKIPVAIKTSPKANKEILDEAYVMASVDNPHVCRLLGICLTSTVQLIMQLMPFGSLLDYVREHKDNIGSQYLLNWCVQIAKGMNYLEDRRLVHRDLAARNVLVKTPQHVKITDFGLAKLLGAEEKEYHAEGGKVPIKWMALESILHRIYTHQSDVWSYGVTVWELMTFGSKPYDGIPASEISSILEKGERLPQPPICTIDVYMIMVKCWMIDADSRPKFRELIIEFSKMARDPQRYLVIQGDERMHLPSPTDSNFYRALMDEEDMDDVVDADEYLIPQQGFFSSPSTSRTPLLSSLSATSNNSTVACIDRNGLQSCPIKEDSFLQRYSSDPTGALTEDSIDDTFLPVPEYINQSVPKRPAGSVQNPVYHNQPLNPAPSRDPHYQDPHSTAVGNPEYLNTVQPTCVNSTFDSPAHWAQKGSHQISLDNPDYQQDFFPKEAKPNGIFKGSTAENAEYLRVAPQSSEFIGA
Protocol: 1) Measurement of inhibitory activity against EGFR (d746-750/T790M/C797S) kinase
The compounds of the above examples and comparative examples were measured for their inhibitory activity against EGFR (d746-750/T790M/C797S) kinase activity. Among the materials required for measurement of this inhibitory activity, the kinase protein (SEQ ID NO: 1) used was prepared as follows: the cytoplasmic domain of human EGFR (d746-750/T790M/C797S) fused at the ammo terminal end with a glutathione-S-transferase (GST) tag was expressed M insect cells (Sf9) by the baculovirus expression system and then purified an a glutathione sepharose column. For use as a substrate peptide, a peptide biotinylated at the N-terminal end (biotin -EEPLYWSFPAKKK) was synthesized by reference to Perkin Elmer LabChip® series reagent FL-Peptide 22.
Procedures for measurement of the inhibitory activity are as follows. First, the compounds of the present invention were each dissolved in dimethyl sulfoxide (DMSO), and their serial dilutions were then prepared with DMSO. Secondly, each compound serial dilution (final concentration of DMSO during kinase reaction: 2.5%) or DMSO (final concentration: 2.5%) was mixed with a solution containing the substrate peptide (final concentration: 250 nM), magnesium chloride (final concentration: 10 mM), manganese chloride (final concentration: 10 mM) and ATP (final concentration: 6 μM) in a kinase reaction buffer (Carna Biosciences Inc., Japan), and the EGFR (d746-750/T790M/C797S) protein was further added thereto, followed by incubation at 25° C. for 120 minutes to cause kinase reaction. To the reaction solution, EDTA was added to give a final concentration of 24 mM to thereby stop the reaction, followed by addition of a phospholylated tyrosine detection solution containing europium-labeled anti-phosphorylated tyrosine antibody PT66 (Perkin Elmer) and SureLight APC-SA (Perkin Elmer). The reaction solution was allowed to stand at room temperature for 2 hours or longer. As a background, DMSO was used instead of each compound solution in .DMSO, and EDIA was added prior to the addition of the EGFR EGFR (d746-750/T790M/C797S) protein, followed by incubation at 25° C. for 120 minutes. The same detection solution was also added to this reaction solution, which was then allowed to stand for 2 hours or longer. Finally, all the test samples were measured with a PHERAstar FS reader (BMG LABTECH) for their fluorescence intensity at two wavelengths of 620 nm and 665 nm upon irradiation with an excitation light of 337 nm wavelength, and the ratio of fluorescence intensities at these two wavelengths was obtained as data for each compound.
Moreover, as control compounds, the above Comparative Example A (Example 3 in WO2013/118817) and Comparative Example B (Example 35 in WO2013/118817) known to have EGFR inhibitory activity were used.
In accordance with the same procedures as shown in 1) in Test Example 1, the compounds of the above examples were measured for their inhibitory activity against EGFR (d746-750/T790M/C797S) kinase activity.

human EGFR (WT) = target: T3, human EGFR (WT) (Homo sapiens, UniProt P00533); test: Inhibitory activity against EGFR (WT) kinase; conditions: Test Example 1, Table 6; ATP 1.5 μM
T3 construct: purchased Carna Biosciences Inc., Japan
T3 sequence (P00533 25-1210): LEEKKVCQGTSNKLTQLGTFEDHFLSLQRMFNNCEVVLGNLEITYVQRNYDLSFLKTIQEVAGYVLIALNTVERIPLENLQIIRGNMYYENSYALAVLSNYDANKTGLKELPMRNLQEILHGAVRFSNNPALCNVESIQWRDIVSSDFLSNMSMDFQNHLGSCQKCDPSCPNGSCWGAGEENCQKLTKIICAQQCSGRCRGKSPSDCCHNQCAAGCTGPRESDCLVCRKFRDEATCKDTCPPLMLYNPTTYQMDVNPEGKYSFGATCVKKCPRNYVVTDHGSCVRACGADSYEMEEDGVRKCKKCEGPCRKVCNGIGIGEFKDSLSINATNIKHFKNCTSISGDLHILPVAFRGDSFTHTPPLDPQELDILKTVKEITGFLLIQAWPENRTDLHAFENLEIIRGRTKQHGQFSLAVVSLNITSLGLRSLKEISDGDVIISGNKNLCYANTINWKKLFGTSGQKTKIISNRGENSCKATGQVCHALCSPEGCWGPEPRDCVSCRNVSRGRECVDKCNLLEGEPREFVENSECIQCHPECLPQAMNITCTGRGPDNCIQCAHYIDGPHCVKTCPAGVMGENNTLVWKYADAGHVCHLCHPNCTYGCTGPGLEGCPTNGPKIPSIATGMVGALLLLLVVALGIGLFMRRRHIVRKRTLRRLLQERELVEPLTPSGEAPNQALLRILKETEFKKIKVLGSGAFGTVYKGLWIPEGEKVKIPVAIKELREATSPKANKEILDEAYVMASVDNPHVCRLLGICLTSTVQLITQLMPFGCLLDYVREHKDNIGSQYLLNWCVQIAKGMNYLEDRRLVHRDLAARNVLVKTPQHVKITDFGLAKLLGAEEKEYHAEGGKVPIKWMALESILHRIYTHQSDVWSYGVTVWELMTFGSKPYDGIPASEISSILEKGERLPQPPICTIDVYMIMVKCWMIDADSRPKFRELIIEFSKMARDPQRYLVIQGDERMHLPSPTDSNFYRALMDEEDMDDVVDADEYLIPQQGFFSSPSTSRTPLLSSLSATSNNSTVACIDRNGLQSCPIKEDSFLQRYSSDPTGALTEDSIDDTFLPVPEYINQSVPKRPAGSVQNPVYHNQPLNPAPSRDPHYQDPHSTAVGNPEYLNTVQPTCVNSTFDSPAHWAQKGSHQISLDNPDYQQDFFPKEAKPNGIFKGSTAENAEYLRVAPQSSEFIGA
Protocol: The compounds of the present invention were measured for their inhibitory activity nainst EGFR (WT) kinase activity.
The materials, measurement procedures and data analysis method used in this test. are substantially the same as those shown in the section “Measurement of inhibitory activity against EGFR (d746-750/T790M/C797S) kinase.” However, among the materials, the kinase protein used was a purified recombinant human EGFR (WT) purchased from Carna Biosciences Inc., Japan. In the measurement procedures, the final concentration of ATP was set to 1.5 μM. Finally, data analysis was conducted to determine the IC50 value (nM) of each compound against EGFR (WT).
In accordance with the same procedures as shown in 5) in Test Example 1, the compounds of the present invention were measured for their inhibitory activity against. EGFR (WT) kinase activity.

[3] = target: T4, human EGFR (L858R/T790M/C797S) (Homo sapiens, UniProt P00533, C797S/L858R/T790M); test: Inhibitory activity against EGFR (L858R/T790M/C797S) kinase; conditions: Test Example 1, Table 3; ATP 0.5 μM
T4 construct: made in house; host or cells: Sf9 insect cells, baculovirus
T4 sequence (P00533 with tags, fused parts or gaps T790M/C797S/L858R): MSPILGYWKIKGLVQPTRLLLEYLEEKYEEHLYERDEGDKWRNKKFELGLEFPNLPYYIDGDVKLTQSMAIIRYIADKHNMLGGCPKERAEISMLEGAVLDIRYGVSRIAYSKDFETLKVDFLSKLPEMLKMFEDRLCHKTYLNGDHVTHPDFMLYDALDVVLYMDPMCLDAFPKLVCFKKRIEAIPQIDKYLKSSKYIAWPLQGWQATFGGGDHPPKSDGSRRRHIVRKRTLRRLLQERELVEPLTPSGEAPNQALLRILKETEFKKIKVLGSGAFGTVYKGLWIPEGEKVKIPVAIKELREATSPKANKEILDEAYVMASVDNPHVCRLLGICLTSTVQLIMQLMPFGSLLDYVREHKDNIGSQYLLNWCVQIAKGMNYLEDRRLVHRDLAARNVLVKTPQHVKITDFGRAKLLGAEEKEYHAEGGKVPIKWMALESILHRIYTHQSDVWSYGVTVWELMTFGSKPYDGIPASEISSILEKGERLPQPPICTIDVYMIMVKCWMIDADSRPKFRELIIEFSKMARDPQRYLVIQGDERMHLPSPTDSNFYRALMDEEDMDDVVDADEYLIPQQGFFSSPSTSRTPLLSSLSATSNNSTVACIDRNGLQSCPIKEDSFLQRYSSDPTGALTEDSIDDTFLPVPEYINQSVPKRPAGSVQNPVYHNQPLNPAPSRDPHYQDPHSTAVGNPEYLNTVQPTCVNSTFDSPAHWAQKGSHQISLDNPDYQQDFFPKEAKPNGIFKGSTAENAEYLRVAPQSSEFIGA
Protocol: 2) Measurement of inhibitory activity against EGFR (L858R/T790M/C797S) kinase
The compounds of the presein invention were measured for their inhibitory activity against EGFR (L858R/T790M/C797S) kinase activity.
The materials, measurement procedures and data analysis method used in this test are substantially the same as those shown in the section “Measurement of inhibitory activity against EGFR (d746-750/T790M/C797S) kinase.” However, among the materials, the kinase protein (SEQ ID NO: 2) used was prepared as follows: the cytoplasmic domain of human EGFR (L858R/T790M/C797S) fused at the amino terminal end with a GST tag was expressed in insect cells (Sf9) by the baculovirus expression system and then purified on a glutathione sepharose column. In the measurement procedures, the final concentration of ATP was set to 0.5 μM. Finally, data analysis was conducted to determine the IC50 value (nM) of each compound against EGFR (L858R/T790M/C797S).
In accordance with the same procedures as shown in 2) in Test Example 1, the compounds of the present invention were measured for their inhibitory activity against EGFR (L858R/T790M/C797S) kinase activity.

human EGFR (L858R/C797S) = target: T5, human EGFR (L858R/C797S) (Homo sapiens, UniProt P00533, C797S/L858R); test: Inhibitory activity against EGFR (L858R/C797S) kinase; conditions: Test Example 1, Table 5; ATP 4 μM, 90 minutes
T5 construct: purchased SignalChem
T5 sequence (P00533 25-1210 C797S/L858R): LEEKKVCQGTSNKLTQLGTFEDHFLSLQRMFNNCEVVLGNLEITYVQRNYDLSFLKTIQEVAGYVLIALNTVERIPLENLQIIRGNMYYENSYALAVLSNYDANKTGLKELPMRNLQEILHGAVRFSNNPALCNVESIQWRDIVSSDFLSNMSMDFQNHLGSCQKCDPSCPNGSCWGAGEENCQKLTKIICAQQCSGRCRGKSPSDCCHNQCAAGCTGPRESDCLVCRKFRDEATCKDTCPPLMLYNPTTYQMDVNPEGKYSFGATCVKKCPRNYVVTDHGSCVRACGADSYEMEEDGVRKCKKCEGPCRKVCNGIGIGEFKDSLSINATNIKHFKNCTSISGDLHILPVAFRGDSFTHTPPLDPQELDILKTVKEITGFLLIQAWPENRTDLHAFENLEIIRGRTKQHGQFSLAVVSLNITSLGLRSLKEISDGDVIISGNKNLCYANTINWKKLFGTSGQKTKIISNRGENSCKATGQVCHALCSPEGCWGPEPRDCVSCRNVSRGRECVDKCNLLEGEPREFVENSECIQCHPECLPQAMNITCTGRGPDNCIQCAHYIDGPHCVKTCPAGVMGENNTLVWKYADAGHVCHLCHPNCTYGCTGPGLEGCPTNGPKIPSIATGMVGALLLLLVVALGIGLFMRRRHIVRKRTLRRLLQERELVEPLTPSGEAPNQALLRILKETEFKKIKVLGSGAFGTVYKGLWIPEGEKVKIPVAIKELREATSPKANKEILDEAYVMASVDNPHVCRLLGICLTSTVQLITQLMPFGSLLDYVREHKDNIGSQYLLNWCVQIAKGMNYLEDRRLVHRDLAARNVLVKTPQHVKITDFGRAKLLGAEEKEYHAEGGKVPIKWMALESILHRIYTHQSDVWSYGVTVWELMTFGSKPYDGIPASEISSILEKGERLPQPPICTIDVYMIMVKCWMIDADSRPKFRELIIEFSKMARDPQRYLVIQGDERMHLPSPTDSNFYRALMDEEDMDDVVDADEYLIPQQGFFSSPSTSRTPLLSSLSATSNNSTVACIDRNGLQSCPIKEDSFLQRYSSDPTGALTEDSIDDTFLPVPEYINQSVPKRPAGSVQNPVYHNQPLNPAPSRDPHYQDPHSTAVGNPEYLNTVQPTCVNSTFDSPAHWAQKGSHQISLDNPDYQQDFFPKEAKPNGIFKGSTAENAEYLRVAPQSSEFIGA
Protocol: 4) Measurement of inhibitory activity against EGFR (L858R/C797S) kinase
The compounds of the present invention were measured for their inhibitory activity aeainst EGFR (L858R/C797S) kinase activity.
The materials, measurement procedures and data analysis method used in this test are stibstantially the same as those shown in the section “Measurement of inhibitory activity against EGFR (d746-750/C797S) kinase.” However, among the materials, the kinase protein used was a purified recombinant human EGFR (C797S/L858R) protein purchased from SignalChem. In the measurement procedures, the final concentration of ATP was set to 4 μM, and the incubation time for kinase reaction was set to 90 minutes. Finally, data analysis was conducted determine the IC50 value (nM) of each compound against EGFR (L858R/C797S).
In accordance with the same procedures as shown in 4) in Test Example 1, the compounds of the present invention were measured for their inhibitor activity against. EGFR (L858R/C797S) kinase activity.

T1 sequence (P00533 with tags, fused parts or gaps DEL746-750/C797S): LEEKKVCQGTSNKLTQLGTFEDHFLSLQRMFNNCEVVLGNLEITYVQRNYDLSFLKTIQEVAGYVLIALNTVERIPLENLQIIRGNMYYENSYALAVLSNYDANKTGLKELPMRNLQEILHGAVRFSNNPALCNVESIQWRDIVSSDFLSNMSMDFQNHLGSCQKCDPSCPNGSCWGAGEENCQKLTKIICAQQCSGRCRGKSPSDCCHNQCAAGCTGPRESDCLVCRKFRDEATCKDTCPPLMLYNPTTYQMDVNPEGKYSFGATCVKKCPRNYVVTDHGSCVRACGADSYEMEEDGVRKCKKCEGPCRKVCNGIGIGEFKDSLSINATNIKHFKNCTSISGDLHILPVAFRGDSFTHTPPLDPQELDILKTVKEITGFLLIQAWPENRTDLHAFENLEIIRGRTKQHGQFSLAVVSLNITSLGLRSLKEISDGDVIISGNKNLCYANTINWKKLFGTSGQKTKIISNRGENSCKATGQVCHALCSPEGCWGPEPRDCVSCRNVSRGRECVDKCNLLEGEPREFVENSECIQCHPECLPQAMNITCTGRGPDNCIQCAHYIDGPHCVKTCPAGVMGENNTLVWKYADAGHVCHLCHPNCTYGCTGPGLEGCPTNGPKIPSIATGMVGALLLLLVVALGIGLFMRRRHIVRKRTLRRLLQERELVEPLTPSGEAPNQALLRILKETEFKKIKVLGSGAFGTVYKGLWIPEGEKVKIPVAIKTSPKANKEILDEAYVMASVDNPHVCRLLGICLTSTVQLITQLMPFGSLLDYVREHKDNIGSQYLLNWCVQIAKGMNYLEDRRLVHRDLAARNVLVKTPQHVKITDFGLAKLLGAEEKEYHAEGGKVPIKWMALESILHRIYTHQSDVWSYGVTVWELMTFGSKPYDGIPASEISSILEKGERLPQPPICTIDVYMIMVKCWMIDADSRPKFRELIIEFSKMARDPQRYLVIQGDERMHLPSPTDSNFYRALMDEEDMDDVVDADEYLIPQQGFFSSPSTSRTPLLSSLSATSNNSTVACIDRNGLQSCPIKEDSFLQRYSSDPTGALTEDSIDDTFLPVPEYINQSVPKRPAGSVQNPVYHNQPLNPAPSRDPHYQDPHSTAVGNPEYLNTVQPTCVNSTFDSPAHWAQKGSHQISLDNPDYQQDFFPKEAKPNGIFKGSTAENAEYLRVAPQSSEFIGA

IC50 [1]	IC50 [2]	IC50 (human EGFR (WT))	IC50 [3]	IC50 (human EGFR (L858R/C797S))	SMILES
1 nM	0.36 nM	2.9 nM	0.38 nM	1.5 nM	C#Cc1c(-c2cnc3ccccc3c2)c2c(N)ncnc2n1C12CCC(NCC#N)(CC1)C2 [Example 4, 2-((4-(4-Amino-6-ethynyl-5-(quinolin-3-yl)-7H-pyrrolo[2,3-d]pyrimidin-7-yl)bicyclo-[2.2.1]heptan-1-yl)amino)acetonitrile]
2.1 nM	< 0.3 nM	5.2 nM	0.7 nM	4.6 nM	C#Cc1c(-c2cnc3ccccc3c2)c2c(N)ncnc2n1C12CCC(NC(=O)c3ccnn3C)(CC1)CC2 [Example 6, N-(4-(4-Amino-6-ethynyl-5-(quinoiln-3-yl)-7H-pyrrolo[2,3-d]pyrimidin-7-yl)bicyclo-[2.2.2]octan-1-yl)-1-methyl-1H-pyrazole-5-carboxamide]
0.62 nM	< 0.3 nM	1.1 nM	0.56 nM	0.95 nM	C#Cc1c(-c2cnc3ccccc3c2)c2c(N)ncnc2n1C12CCC(CO)(CC1)C2 [Example 10]
1.6 nM	< 0.3 nM	11 nM	0.69 nM	2.4 nM	C#Cc1c(-c2cnc3ccccc3c2)c2c(N)ncnc2n1C12CCC(N(C)C)(CC1)C2 [Example 11, 7-(4-(Dimethylamino)bicyclo[2.2.1]heptan-1-yl)-6-ethynyl-5-(quinolin-3-yl)-7H -pyrrolo[2,3-d]pyrimidine-4-amine]
2.4 nM	< 0.3 nM	2.1 nM	0.39 nM	3.8 nM	C#Cc1c(-c2cnc3ccccc3c2)c2c(N)ncnc2n1C12CCC(NC(=O)OCC)(CC1)C2 [Example 12, Ethyl (4-(4-amino-6-ethynyl-5-(quinolin-3-yl)-7H-pyrrolo[2,3-d]pyrimidin-7-yl) -bicyclo[2.2.1]heptan-1-yl)carbamate]
0.79 nM	< 0.3 nM	1.5 nM	0.52 nM	1 nM	C#Cc1c(-c2cnc3ccccc3c2)c2c(N)ncnc2n1C12CCC(NC(=O)c3cnc(Cl)cn3)(CC1)C2 [Example 15]
0.61 nM	< 0.3 nM	2.6 nM	0.79 nM	0.66 nM	C#Cc1c(-c2cnc3ccccc3c2)c2c(N)ncnc2n1C12CCC(NC(=O)c3ccnn3CCOC)(CC1)C2 [Example 17, N-(4-(4-Amino-6-ethynyl-5-(quinolin-3-yl)-7H-pyrrolo[2,3-d]pyrimidin-7-yl)bicyclo-[2.2.1]heptan-1-yl)-1-(2-methoxyethyl)-1H-pyrazole-5-carboxamide]
< 0.3 nM	< 0.3 nM	0.39 nM	< 0.3 nM	0.3 nM	C#Cc1c(-c2cnc3ccccc3c2)c2c(N)ncnc2n1C12CCC(NC(=O)c3nccnn3)(CC1)C2 [Example 19, N-(4-(4-Amino-6-ethynyl-5-(quinolin-3-yl)-7H-pyrrolo[2,3-d]pyrimidin-7-yl)bicyclo-[2.2.1]heptan-1-yl)-1,2,4-triazine-3-carboxamide]
< 0.3 nM	< 0.3 nM	0.55 nM	0.42 nM	0.35 nM	C#Cc1c(-c2cnc3ccccc3c2)c2c(N)ncnc2n1C12CCC(NC(=O)c3cnnn3C)(CC1)C2 [Example 22, N-(4-(4-Amino-6-ethynyl-5-(quinolin-3-yl)-7H-pyrrolo[2,3-d]pyrimidin-7-yl)bicyclo-[2.2.1]heptan-1-yl)-1-methyl-1H-1,2,3-triazole-5-carboxamide]
0.4 nM	< 0.3 nM	0.51 nM	0.6 nM	0.59 nM	C#Cc1c(-c2cnc3ccccc3c2)c2c(N)ncnc2n1C12CCC(NC(=O)c3cncn(C)c3=O)(CC1)C2 [Example 25, N-(4-(4-Amino-6-ethynyl-5-(quinolin-3-yl)-7H-pyrrolo[2,3-d]pyrimidin-7-yl)bicyclo-[2.2.1]heptan-1-yl)-1-methyl-6-oxo-1,6-dihydropyrimidine-5-carboxamide]
0.71 nM	< 0.3 nM	2.1 nM	0.62 nM	0.84 nM	C#Cc1c(-c2cnc3ccccc3c2)c2c(N)ncnc2n1C12CCC(NC(=O)c3ccnn3-c3ccccc3)(CC1)C2 [Example 26, N-(4-(4-Amino-6-ethynyl-5-(quinolin-3-yl)-7H-pyrrolo[2,3-d]pyrimidin-7-yl)bicyclo-[2.2.1]heptan-1-yl)-1-phenyl-1H-pyrazole-5-carboxamide]
